# Measured values published in US9375435B2, “Use of a DNA expression construct” (MOLOGEN AG, priority 2010, dated 2016).
# Tests used:
# [1] = system: A375 melanoma cells; conditions: vindesine 12.8 μg per ml
# Description: In further experiments the effect of TNF-α expression on cell vitality and tumour volume was investigated.
# [2] = system: A375 melanoma xenotransplanted-tumours; assay: Chemo-sensitization of xenotransplanted tumours, intratumoral jet injection; type: in vivo; conditions: twice 150 μg DNA construct, twice 0.5 mg/kg vindesine where indicated
# Description: A) In vitro chemo-sensitization assay results. B) Chemo-sensitization of A375 melanoma xenotransplanted tumors.
# The intratumoral jet injection was performed using twice 150 μg of the dumbbell-shaped DNA construct and where indicated additionally twice 0.5 mg/kg tumour vindesine.
# On the y-axis is the median of the relative tumour volume shown for the indicated days after transfer (x-axis).
compound,measurement,setting,value
CC[C@]1(O)C[C@@H]2CN(CCc3c([nH]c4ccccc34)[C@@](C(=O)OC)(c3cc4c(cc3OC)N(C)[C@H]3[C@@](O)(C(N)=O)[C@H](O)[C@]5(CC)C=CCN6CC[C@]43[C@@H]65)C2)C1 [vindesine],relative cell vitality,[1],0.6
same,median of the relative tumour volume,[2],reduces the average tumour volume
